From ChEMBL document CHEMBL4011614 (J Med Chem, 2017)
Activity calls are given as the source filed them. No cut-off for these calls is given here.

Legend:
CREB-binding protein = CREB-binding protein (Homo sapiens, UniProt Q92793); test: Inhibition of CREBBP (unknown origin) by FRET assay
[1] = biological target: T1, Bromodomain-containing protein 4 (Homo sapiens, UniProt O60885); test: Inhibition of BRD4 (unknown origin) by fluorescence polarization assay
Homo sapiens = species: Homo sapiens; test: Selectivity ratio of IC50 for BRD4 (unknown origin) to IC50 for CREBBP (unknown origin)
[2] = Passive permeability of the compound at 2 uM by cell-based assay; type: physicochemical; conditions: not told; read-out: permeability
[3] = Lipophilicity, log D of the compound at pH 7.4 by shake flask method; type: physicochemical; conditions: buffer
[4] = biological target: Histone acetyltransferase p300 (Homo sapiens) (UniProt Q09472); test: Inhibition of human EP300 (1040 to 1161 residues) expressed in bacterial expression system at 10 uM by bromoscan assay
Sequence of Histone acetyltransferase p300 (Homo sapiens) (Q09472 whole entry, the tested form may be a part): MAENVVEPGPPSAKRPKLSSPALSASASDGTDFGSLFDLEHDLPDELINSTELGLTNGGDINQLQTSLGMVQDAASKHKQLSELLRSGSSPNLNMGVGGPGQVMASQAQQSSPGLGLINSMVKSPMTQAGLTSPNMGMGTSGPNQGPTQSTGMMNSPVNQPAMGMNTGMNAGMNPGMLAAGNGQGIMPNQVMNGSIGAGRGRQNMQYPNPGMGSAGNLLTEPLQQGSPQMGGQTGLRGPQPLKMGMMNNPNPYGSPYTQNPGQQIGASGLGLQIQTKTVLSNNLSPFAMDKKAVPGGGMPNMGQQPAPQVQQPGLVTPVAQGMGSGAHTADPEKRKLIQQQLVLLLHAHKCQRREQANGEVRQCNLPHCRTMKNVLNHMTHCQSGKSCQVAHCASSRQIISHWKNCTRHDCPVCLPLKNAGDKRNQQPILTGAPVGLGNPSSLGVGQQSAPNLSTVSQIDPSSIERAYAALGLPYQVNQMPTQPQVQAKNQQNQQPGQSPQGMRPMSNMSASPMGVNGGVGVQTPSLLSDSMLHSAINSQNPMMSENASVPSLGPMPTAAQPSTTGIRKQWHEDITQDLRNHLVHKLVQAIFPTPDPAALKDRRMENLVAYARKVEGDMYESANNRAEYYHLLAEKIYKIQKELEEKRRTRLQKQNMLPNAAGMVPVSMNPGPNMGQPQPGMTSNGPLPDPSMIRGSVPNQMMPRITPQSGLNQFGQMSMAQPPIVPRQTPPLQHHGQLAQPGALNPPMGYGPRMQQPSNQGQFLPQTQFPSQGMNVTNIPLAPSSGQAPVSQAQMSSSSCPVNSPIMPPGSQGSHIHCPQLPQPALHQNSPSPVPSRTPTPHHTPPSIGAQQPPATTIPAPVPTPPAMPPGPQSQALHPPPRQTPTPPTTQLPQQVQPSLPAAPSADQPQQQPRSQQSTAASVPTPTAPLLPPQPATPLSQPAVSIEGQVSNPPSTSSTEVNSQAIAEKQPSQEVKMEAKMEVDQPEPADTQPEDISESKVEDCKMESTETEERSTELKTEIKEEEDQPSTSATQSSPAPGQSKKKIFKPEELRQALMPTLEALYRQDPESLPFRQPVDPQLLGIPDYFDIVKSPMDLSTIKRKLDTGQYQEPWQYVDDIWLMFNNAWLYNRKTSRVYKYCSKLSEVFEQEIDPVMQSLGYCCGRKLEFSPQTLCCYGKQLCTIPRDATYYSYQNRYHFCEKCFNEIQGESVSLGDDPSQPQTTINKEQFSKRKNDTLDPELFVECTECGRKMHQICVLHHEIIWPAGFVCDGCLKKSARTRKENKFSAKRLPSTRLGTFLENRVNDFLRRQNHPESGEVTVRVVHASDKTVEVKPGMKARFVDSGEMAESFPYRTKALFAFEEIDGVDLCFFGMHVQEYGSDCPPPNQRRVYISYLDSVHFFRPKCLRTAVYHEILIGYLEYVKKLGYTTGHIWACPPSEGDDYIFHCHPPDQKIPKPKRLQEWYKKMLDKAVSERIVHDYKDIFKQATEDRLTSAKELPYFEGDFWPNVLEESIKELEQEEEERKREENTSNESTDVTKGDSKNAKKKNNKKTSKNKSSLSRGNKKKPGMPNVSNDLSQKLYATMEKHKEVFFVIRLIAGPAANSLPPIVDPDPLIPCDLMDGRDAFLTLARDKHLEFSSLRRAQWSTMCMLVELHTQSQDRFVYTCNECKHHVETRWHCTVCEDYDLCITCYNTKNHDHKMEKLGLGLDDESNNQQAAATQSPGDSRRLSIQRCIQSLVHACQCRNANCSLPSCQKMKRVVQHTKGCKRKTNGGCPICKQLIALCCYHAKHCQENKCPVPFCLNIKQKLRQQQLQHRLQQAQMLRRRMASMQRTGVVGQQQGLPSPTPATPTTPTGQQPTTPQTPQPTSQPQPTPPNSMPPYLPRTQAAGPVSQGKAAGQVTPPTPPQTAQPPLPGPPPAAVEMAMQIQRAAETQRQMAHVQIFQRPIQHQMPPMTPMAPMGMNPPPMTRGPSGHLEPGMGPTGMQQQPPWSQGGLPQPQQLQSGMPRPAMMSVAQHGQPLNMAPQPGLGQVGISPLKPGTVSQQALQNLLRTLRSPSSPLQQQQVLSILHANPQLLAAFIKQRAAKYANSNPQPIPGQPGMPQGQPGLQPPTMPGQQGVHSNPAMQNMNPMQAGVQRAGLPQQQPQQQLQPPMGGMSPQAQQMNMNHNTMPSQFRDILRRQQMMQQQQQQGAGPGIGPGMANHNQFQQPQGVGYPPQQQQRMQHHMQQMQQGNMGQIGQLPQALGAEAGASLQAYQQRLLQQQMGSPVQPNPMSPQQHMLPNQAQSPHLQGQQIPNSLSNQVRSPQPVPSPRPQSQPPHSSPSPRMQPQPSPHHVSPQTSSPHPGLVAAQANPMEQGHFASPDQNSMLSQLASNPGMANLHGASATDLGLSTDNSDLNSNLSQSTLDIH

[5] = biological target: T1, Bromodomain-containing protein 4; test: Inhibition of human BRD4 by fluorescence polarization assay

Sequence of CREB-binding protein (Q92793 whole entry): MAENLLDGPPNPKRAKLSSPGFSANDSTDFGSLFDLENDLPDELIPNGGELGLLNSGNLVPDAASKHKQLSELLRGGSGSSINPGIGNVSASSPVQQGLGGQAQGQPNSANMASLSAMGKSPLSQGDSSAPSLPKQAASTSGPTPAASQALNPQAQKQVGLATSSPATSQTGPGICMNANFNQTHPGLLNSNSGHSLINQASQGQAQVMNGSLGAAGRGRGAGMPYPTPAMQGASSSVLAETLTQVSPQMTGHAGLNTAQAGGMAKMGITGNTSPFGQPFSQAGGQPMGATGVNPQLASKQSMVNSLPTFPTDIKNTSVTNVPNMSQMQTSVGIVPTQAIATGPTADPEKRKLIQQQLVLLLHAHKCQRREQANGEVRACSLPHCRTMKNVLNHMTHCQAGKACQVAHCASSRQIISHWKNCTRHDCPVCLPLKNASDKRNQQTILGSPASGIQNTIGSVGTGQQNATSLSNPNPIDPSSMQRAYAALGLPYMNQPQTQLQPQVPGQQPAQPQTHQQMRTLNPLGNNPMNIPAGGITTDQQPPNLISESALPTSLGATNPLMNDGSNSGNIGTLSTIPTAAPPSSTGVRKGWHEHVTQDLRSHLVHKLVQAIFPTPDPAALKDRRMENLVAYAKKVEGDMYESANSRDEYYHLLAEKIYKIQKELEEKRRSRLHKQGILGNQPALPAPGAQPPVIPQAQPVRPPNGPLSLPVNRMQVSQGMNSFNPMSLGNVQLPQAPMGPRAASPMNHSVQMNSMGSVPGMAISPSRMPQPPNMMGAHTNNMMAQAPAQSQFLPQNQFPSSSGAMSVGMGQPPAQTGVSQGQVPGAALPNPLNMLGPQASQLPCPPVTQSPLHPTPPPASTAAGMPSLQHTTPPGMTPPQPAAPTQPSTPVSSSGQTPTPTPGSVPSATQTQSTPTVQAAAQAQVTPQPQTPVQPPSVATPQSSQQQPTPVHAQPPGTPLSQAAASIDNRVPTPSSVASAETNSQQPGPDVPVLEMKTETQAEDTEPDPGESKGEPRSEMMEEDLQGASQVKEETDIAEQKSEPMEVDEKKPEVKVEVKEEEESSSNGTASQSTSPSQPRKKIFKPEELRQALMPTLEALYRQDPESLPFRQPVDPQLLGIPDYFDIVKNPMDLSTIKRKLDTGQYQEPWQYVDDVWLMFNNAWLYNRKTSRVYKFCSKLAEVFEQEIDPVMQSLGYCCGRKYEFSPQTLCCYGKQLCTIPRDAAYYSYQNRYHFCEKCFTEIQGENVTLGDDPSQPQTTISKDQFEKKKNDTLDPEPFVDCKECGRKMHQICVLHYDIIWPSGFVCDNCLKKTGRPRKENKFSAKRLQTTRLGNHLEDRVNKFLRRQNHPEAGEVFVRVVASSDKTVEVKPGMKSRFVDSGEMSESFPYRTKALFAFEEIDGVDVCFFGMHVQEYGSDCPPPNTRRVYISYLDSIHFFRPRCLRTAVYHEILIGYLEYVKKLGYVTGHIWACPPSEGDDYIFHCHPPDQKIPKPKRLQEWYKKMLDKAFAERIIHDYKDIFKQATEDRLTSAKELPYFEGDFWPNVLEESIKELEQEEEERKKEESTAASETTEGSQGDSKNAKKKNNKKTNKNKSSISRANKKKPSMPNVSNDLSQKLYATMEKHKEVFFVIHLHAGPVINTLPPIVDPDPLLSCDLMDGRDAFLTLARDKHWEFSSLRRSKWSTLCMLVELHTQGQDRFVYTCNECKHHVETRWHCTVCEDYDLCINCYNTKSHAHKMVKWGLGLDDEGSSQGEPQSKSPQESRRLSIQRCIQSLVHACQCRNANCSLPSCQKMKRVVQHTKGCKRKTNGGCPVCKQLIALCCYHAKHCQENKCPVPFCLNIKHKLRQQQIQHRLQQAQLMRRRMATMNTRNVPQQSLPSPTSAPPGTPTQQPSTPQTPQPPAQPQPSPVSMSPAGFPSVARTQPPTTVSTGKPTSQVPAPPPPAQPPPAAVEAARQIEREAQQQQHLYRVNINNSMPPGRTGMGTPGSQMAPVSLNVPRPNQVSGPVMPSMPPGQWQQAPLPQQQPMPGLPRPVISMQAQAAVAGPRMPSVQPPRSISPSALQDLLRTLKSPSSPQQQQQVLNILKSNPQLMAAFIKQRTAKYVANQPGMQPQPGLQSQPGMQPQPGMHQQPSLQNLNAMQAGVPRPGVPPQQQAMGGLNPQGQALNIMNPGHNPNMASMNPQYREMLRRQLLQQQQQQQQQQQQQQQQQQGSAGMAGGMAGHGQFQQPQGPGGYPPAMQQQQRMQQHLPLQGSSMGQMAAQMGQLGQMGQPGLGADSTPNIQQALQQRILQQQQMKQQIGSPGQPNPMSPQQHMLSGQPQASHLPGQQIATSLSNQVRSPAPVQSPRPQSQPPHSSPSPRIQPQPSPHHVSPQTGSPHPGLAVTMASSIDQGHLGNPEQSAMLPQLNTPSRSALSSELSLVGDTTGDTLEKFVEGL

COc1ccc([C@H]2OCC[C@@H]2c2nc3cc(-c4c(C)noc4C)ccc3n2CCN2CCOCC2)cc1
IC50 (CREB-binding protein): 0.14 µM | IC50 [1]: 9.4 µM | Ratio IC50 (Homo sapiens): 67

Cc1noc(C)c1-c1ccc2c(c1)nc(CCc1ccncc1)n2CCN1CCOCC1
IC50 (CREB-binding protein): 0.4 µM | IC50 [1]: 4.1 µM | Ratio IC50 (Homo sapiens): 10

Cc1noc(C)c1-c1ccc2c(c1)nc(CCc1ccc(OC(F)(F)F)cc1)n2CCN1CCOCC1
IC50 [1]: 18.5 µM

Cc1n[nH]c(C)c1-c1ccc2c(c1)nc(CCc1ccccc1)n2CCN1CCOCC1
IC50 (CREB-binding protein): 2.4 µM | IC50 [1]: > 10 µM

Cc1noc(C)c1-c1ccc2c(c1)nc1n2[C@H](CN2CCOCC2)CC1Cc1ccccc1 (single isomer, unassigned; 31)
IC50 (CREB-binding protein): 0.45 µM | IC50 [1]: 2 µM

COc1ccc(CCc2cc3nc(-c4c(C)noc4C)ccc3n2CCN2CCOCC2)cc1
IC50 (CREB-binding protein): 0.17 µM | IC50 [1]: 18.4 µM | Ratio IC50 (Homo sapiens): > 100 | Papp at 2 µM [2]: 6.8 ×10⁻⁶ cm/s | logD [3]: 3.29 | inhibition [4]: Active

Cc1noc(C)c1-c1ccc2c(c1)nc(CCc1c[nH]c3ccccc13)n2CCN1CCOCC1
IC50 (CREB-binding protein): 0.74 µM | IC50 [1]: 10.1 µM | Ratio IC50 (Homo sapiens): 14

Cc1noc(C)c1-c1ccc2c(c1)nc(CCc1ccc(C#N)cc1)n2CCN1CCOCC1
IC50 (CREB-binding protein): 0.3 µM | IC50 [1]: 4.9 µM | Ratio IC50 (Homo sapiens): 16

Cc1noc(C)c1-c1ccc2c(c1)nc(CCc1ccc(OC(C)C)cc1)n2CCN1CCOCC1
IC50 (CREB-binding protein): 0.2 µM | IC50 [1]: 4.5 µM | Ratio IC50 (Homo sapiens): 23

COc1ccccc1CCc1nc2cc(-c3c(C)noc3C)ccc2n1CCN1CCOCC1
IC50 (CREB-binding protein): 0.98 µM | IC50 [1]: 13.9 µM | Ratio IC50 (Homo sapiens): 14

Cc1noc(C)c1-c1ccc2c(c1)nc(-c1cnn3c1CCC3)n2CCN1CCOCC1
IC50 (CREB-binding protein): 0.13 µM | IC50 [1]: 1.6 µM | Ratio IC50 (Homo sapiens): 12

COc1ccc(CCc2cc3cc(-c4c(C)noc4C)ccc3n2CCN2CCOCC2)cc1
IC50 (CREB-binding protein): 1.5 µM | IC50 [1]: > 120 µM

Cc1noc(C)c1-c1ccc2c(c1)nc(CCc1ccccc1)n2CC(=O)N1CCOCC1
IC50 (CREB-binding protein): 0.36 µM | IC50 [1]: 13.2 µM | Ratio IC50 (Homo sapiens): 37

Cc1noc(C)c1-c1ccc2c(c1)nc([C@@H]1CCO[C@H]1c1ccccc1)n2CCN1CCOCC1
IC50 (CREB-binding protein): 0.076 µM | IC50 [1]: 0.49 µM | Ratio IC50 (Homo sapiens): 6

Cc1noc(C)c1-c1ccc2c(c1)nc(CCc1ccc(N(C)C)cc1)n2CCN1CCOCC1
IC50 (CREB-binding protein): 0.21 µM | IC50 [1]: 4.3 µM | Ratio IC50 (Homo sapiens): 20

COc1ccc(CCc2nc3cc(-c4c(C)noc4C)ccc3n2C[C@H](C)N2CCOCC2)cc1Cl
IC50 [5]: 5.85 µM

CC(=O)Nc1ccc(CCc2nc3cc(-c4c(C)noc4C)ccc3n2CCN2CCOCC2)cc1
IC50 (CREB-binding protein): 0.2 µM | IC50 [1]: 1.4 µM | Ratio IC50 (Homo sapiens): 7

CCn1cc(-c2ccc3c(c2)nc(CCc2ccccc2)n3CCN2CCOCC2)ccc1=O
IC50 (CREB-binding protein): 0.5 µM | IC50 [1]: 3.9 µM

COc1ccc(OCc2nc3cc(-c4c(C)noc4C)ccc3n2CCN2CCOCC2)cc1
IC50 (CREB-binding protein): 0.92 µM | IC50 [1]: 9.2 µM | Ratio IC50 (Homo sapiens): 10

COc1ccc(CCc2nc3cc(-c4c(C)noc4C)ccc3n2CCN2CCOCC2)c(OC)c1
IC50 (CREB-binding protein): 0.24 µM | IC50 [1]: 8.3 µM | Ratio IC50 (Homo sapiens): 35
